Experimental data as given in US12570536B2, “Ammonia synthesis methods and systems” (President and Fellows of Harvard College, priority 2016, dated 2026).

Experiments:
nitrogenase = details: competitive inhibition of nitrogenase; cited from earlier work
X. autotrophicus = test: Extracellular NH3 production by the CoPi|Co-P|X. autotrophicus hybrid device after addition of a GS inhibitor; type: cell-based, Xanthobacter autotrophicus
Source text: A reactor used in the experiments included a biocompatible water splitting catalyst system including a cobalt-phosphorous (Co—P) alloy cathode for the hydrogen evolution reaction (HER) and a cobalt phosphate (CoPi) anode for the oxygen evolution reaction (OER). This system enabled the use of a low driving voltage (Eappl) while producing the desired hydrogen for use in producing ammonia. Specifically, NH3 synthesis from N2 and H2O was accomplished using the water splitting system and driving the N2 reduction reaction within H2-oxidizing, autotrophic microorganisms. In this case, Xanthobacter autotrophicus (X. autotrophicus) was used. X. autotrophicus is a gram-negative bacterium that belongs to a small group of diazotrophs, which at micro-aerobic condition (less than about 5% O2) can use H2 as their sole energy source to fix CO2 and N2 into biomass. Therefore, in this experimental setup, electrochemical water splitting generated H2 as the biological energy source and in the same reactor X. autotrophicus acted as the room-temperature N2 reduction reaction catalyst to convert H2 and N2 into NH3.
The electrodes included a Co—P cathode for the hydrogen evolution reaction and a CoPi anode for the oxygen evolution reaction. A gas mixture including 2% O2, 20% CO2, and 78% N2 was bubbled through the solution at a flow rate of greater than or equal to 5 mL/min to maintain a micro-aerobic environment.
At the beginning of each experiment, X. autotrophicus was inoculated into the organic-free minimal medium without any nitrogen supplement. A constant driving voltage (Eappl=3.0 V) was applied to the CoPi|Co—P catalyst system, and aliquots were periodically sampled for the quantification of biomass (optical density at 600 nm, OD600) as well as fixed nitrogen (colorimetric assay).
The hybrid device is capable of excreting synthesized NH3 into an extracellular medium. Previous biochemical assays and genome sequencing on this strain indicate that the NH3 generated from nitrogenase is incorporated into biomass via a two-step process mediated by glutamine synthetase (GS) and glutamate synthase (GOGAT) (FIGS. 1 and 5). If the functionality of this NH3 assimilation pathway is disrupted, direct production of an extracellular NH3 fertilizer solution is realized. It has been reported that GS inhibitors can be used for NH3 secretion in sugar-fementating diazotrophs. As a proof of principle, glufosinate (PPT), a specific GS inhibitor commercially used as herbicide, was used to block the NH3 assimilation pathway and allow the synthesized NH3 to passively diffuse out into the extracellular medium (pathway 2 in FIG. 1, and FIG. 5). After the addition of PPT, the biomass of X. autotrophicus stagnated, while Ntotal and the concentration of free NH3 in the solution (NNH3) increased (FIG. 6). […]

[1] = end of experiments, after PPT addition, n=3

Row | Compound | inhibition constant Kis(D2) (nitrogenase) [kPa] | biomass of X. autotrophicus after addition (X. autotrophicus; after the addition of PPT, FIG. 6) | concentration of free NH3 in the solution (NNH3) (X. autotrophicus; end of experiments, after PPT addition) [mM] | accumulated Ntotal (X. autotrophicus; [1]) [mg/L] | concentration of free NH3 in the solution (NNH3) (X. autotrophicus; [1]) [mg/L]
1 | [HH] [H2] | ~11 | – | – | – | –
2 | CP(=O)(O)CCC(N)C(=O)O (centres unmarked) [PPT, glufosinate] | – | stagnated | ~0.8 | 47 ± 3 | 11 ± 2
